Literature values, collected in patent US7960102B2, “Regulated aptamer therapeutics” (Archemix Corp., priority 2002, dated 2011).

Target: N1 aptamer
Details: 10 nM labeled N1 aptamer, 1×SB, room temperature, three experiments; read-out: Kd of neomycin for aptamer (protection from T1 cleavage at G27)

## neomycin
  Kd: 0.94 ± 0.06 µM
